Laboratory results taken from PubChem BioAssay AID248 (DTP/NCI, 2004).
Where “and” joins values, the source holds several entries; their conditions need not be identical. Equal entries are not always repeated. Toxic doses and inconclusive results are not listed. Cut-off read from the data, not from the text of the source: active = T/C of 150% or more; inactive = T/C below 125%. Square brackets hold non-standard residues; d marks the D form. Peptide text beside a SMILES is read from it. * marks the point of attachment. ξ: configuration not given here. Cbz = O=C(OCc1ccccc1)*; ξV = CC(C)C(N)C(=O)O

Test system: L1210 leukemia ip in BDF1 mice, survival T/C
Assay: NCI In Vivo Anticancer Drug Screen. Data for tumor model L1210 Leukemia (intraperitoneal) in B6D2F1 (BDF1) mice
Conditions: endpoint: mean survival time, higher = longer survival
How it was run: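 Transplanted-tumor mice were given test agent; controls received vehicle only. Survival readings from the two groups were divided (treated over control).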

[1] = dose: 100.0 mg/kg/injection, schedule: Q04DX003 (ip), vehicle: saline
[2] = dose: 100.0 mg/kg/injection, schedule: Q01DX001 (ip), vehicle: carboxymethylcellulose (CMC)
[3] = dose: 200.0 mg/kg/injection, schedule: Q01DX001 (ip), vehicle: carboxymethylcellulose (CMC)
[4] = dose: 400.0 mg/kg/injection, schedule: Q01DX001 (ip), vehicle: carboxymethylcellulose (CMC)
[5] = dose: 100.0 mg/kg/injection, schedule: Q01DX009 (ip), vehicle: Klucel (hydroxypropylcellulose) (HPC)
[6] = dose: 100.0 mg/kg/injection, schedule: Q04DX003 (ip), vehicle: Klucel (hydroxypropylcellulose) (HPC)
[7] = dose: 200.0 mg/kg/injection, schedule: Q01DX009 (ip), vehicle: Klucel (hydroxypropylcellulose) (HPC)
[8] = dose: 200.0 mg/kg/injection, schedule: Q04DX003 (ip), vehicle: Klucel (hydroxypropylcellulose) (HPC)
[9] = dose: 400.0 mg/kg/injection, schedule: Q01DX009 (ip), vehicle: Klucel (hydroxypropylcellulose) (HPC)
[10] = dose: 400.0 mg/kg/injection, schedule: Q04DX003 (ip), vehicle: Klucel (hydroxypropylcellulose) (HPC)
[11] = dose: 100.0 mg/kg/injection, schedule: Q04DX002 (ip), vehicle: Klucel (hydroxypropylcellulose) (HPC)
[12] = dose: 200.0 mg/kg/injection, schedule: Q04DX002 (ip), vehicle: Klucel (hydroxypropylcellulose) (HPC)
[13] = dose: 400.0 mg/kg/injection, schedule: Q04DX002 (ip), vehicle: Klucel (hydroxypropylcellulose) (HPC)
[14] = dose: 100.0 mg/kg/injection, schedule: Q01DX009 (ip), vehicle: saline
[15] = dose: 200.0 mg/kg/injection, schedule: Q01DX009 (ip), vehicle: saline
[16] = dose: 400.0 mg/kg/injection, schedule: Q01DX009 (ip), vehicle: saline

Measured: T/C

S=C(NCCN1CCOCC1)Nc1ccccc1
inactive: dose: 50.0 mg/kg/injection, schedule: Q01DX001 (ip), vehicle: other 105 % of control | dose: 100.0 mg/kg/injection, schedule: Q01DX001 (ip), vehicle: other 94 % of control | dose: 200.0 mg/kg/injection, schedule: Q01DX001 (ip), vehicle: other 94 % of control | dose: 400.0 mg/kg/injection, schedule: Q01DX001 (ip), vehicle: other 92 % of control

C[NH-].C[NH-].C[NH-].[Cl][Rh]([Cl])[Cl]
inactive: dose: 25.0 mg/kg/injection, schedule: Q04DX003 (ip), vehicle: saline 96 % of control | dose: 50.0 mg/kg/injection, schedule: Q04DX003 (ip), vehicle: saline 96 % of control | [1] 96 % of control

Cc1c(C(=O)N(C)C)no[n+]1[O-]
inactive: dose: 25.0 mg/kg/injection, schedule: Q04DX002 (ip), vehicle: saline 102 % of control | dose: 50.0 mg/kg/injection, schedule: Q04DX002 (ip), vehicle: saline 106 % of control | dose: 100.0 mg/kg/injection, schedule: Q04DX002 (ip), vehicle: saline 98 % of control

Cc1ccnc(NS(=O)(=O)c2ccc(N=Nc3c(N)nc(N)[nH]c3=O)cc2)n1
inactive: [2] 103 % of control | [3] 97 % of control | [4] 103 % of control

Cc1ccc(NC(=O)C(c2ccccc2)c2ccccc2)cc1Cl
inactive: [5] 108 % of control | [6] 88 % of control | [7] 95 % of control | [8] 91 % of control | [9] 108 % of control | [10] 101 % of control

COc1ccc(CCNC(=O)Cc2ccc(O)cc2)cc1OC
inactive: [2] 100 % of control | [3] 102 % of control | [4] 96 % of control

O=C(NC1CCCCC1)Oc1cccc(NC(=S)Nc2ccccc2)c1
inactive: [5] 100 % of control | [7] 97 % of control | [9] 92 % of control

COC1OC2COc3ccccc3OC2C2NC12 (centres undefined)
inactive: [11] 98 % of control | [12] 105 % of control | [13] 102 % of control

NNC(=O)c1cnccn1
inactive: dose: 16.0 mg/kg/injection, schedule: Q01DX015 (ip), vehicle: water 102 % of control | dose: 32.0 mg/kg/injection, schedule: Q01DX015 (ip), vehicle: water 115 % of control | dose: 64.0 mg/kg/injection, schedule: Q01DX015 (ip), vehicle: water 109 % of control | dose: 80.0 mg/kg/injection, schedule: Q01DX015 (ip), vehicle: water 105 % of control | dose: 100.0 mg/kg/injection, schedule: Q01DX001 (ip), vehicle: water 96 % of control | dose: 120.0 mg/kg/injection, schedule: Q01DX015 (ip), vehicle: water 113 % of control

CCN(CC)Cc1cc(Nc2c3ccccc3nc3cc(Cl)ccc23)ccc1O
inactive: dose: 12.5 mg/kg/injection, schedule: Q01DX009 (ip), vehicle: saline 101 % of control | dose: 25.0 mg/kg/injection, schedule: Q01DX009 (ip), vehicle: saline 98 % of control | dose: 30.0 mg/kg/injection, schedule: Q01DX Z (ip), vehicle: methylcellulose (MC) 113 % of control | dose: 30.0 mg/kg/injection, schedule: Q01DX Z (ip), vehicle: saline 101 % of control | dose: 45.0 mg/kg/injection, schedule: Q01DX Z (ip), vehicle: methylcellulose (MC) 100 % of control | dose: 45.0 mg/kg/injection, schedule: Q01DX Z (ip), vehicle: saline 109 % of control | dose: 50.0 mg/kg/injection, schedule: Q01DX001 (ip), vehicle: carboxymethylcellulose (CMC) 102 % of control | dose: 50.0 mg/kg/injection, schedule: Q01DX009 (ip), vehicle: saline 103 % of control | dose: 67.0 mg/kg/injection, schedule: Q01DX Z (ip), vehicle: methylcellulose (MC) 101 % of control | dose: 67.0 mg/kg/injection, schedule: Q01DX Z (ip), vehicle: saline 107 % of control | [2] 102 % of control | dose: 100.0 mg/kg/injection, schedule: Q01DX Z (ip), vehicle: methylcellulose (MC) 103 % of control | [1] 91 % of control | [3] 105 % of control | [4] 102 % of control

COC1=C(CNc2ncnc3nc[nH]c23)CC=CC1
inactive: [14] 95 % of control | [15] 97 % of control | [16] 100 % of control

Nc1cc(SC(c2ccccc2)c2ccccc2)c(N)c(N)n1
inactive: dose: 75.0 mg/kg/injection, schedule: Q01DX001 (ip), vehicle: DMSO 96 % of control | dose: 150.0 mg/kg/injection, schedule: Q01DX001 (ip), vehicle: DMSO 88 % of control

Cc1cc(C(c2ccccc2)c2ccccc2)cc(C)c1OCc1ccccc1
inactive: dose: 50.0 mg/kg/injection, schedule: Q01DX001 (ip), vehicle: Klucel (hydroxypropylcellulose) (HPC) 93 % of control | dose: 100.0 mg/kg/injection, schedule: Q01DX001 (ip), vehicle: Klucel (hydroxypropylcellulose) (HPC) 93 % of control | dose: 200.0 mg/kg/injection, schedule: Q01DX001 (ip), vehicle: Klucel (hydroxypropylcellulose) (HPC) 90 % of control

CC(=O)Nc1ccc2c3c(ccc([N+](=O)[O-])c13)CC2
inactive: [14] 90 % of control | [1] 108 % of control | [15] 93 % of control | dose: 200.0 mg/kg/injection, schedule: Q04DX003 (ip), vehicle: saline 110 % of control | [16] 108 % of control | dose: 400.0 mg/kg/injection, schedule: Q04DX003 (ip), vehicle: saline 110 % of control

CC(=O)N1Cc2c(N)nc(N)nc2C1C (centres undefined)
inactive: [2] 101 % of control | [3] 95 % of control | [4] 104 % of control

CC(C)(C)c1ccc(N)c([N+](=O)[O-])c1
inactive: dose: 50.0 mg/kg/injection, schedule: Q01DX009 (ip), vehicle: saline with Tween-80 102 % of control | dose: 100.0 mg/kg/injection, schedule: Q01DX009 (ip), vehicle: saline with Tween-80 87 % of control | dose: 200.0 mg/kg/injection, schedule: Q01DX009 (ip), vehicle: saline with Tween-80 102 % of control

O=C(N/N=C/c1ccc(Cl)cc1Cl)c1cccc2ccccc12
inactive: dose: 100.0 mg/kg/injection, schedule: Q01DX001 (ip), vehicle: saline 92 % of control | dose: 400.0 mg/kg/injection, schedule: Q01DX001 (ip), vehicle: saline 86 % of control

ClCCN=Cc1ccc(Cl)cc1
inactive: [5] 96 % of control | [11] 96 % of control | [7] 91 % of control | [12] 100 % of control | [9] 96 % of control | [13] 100 % of control

COC(=O)C(NC(=O)CNC(=O)CNC(=O)OCc1ccccc1)C(C)C (stereo not drawn) (Cbz-Gly-Gly-[ξV]-OMe)
inactive: [6] 96 % of control | [8] 99 % of control | [10] 92 % of control

CN(CCC(C#N)(CCC#N)c1ccccc1)Cc1ccccc1 (centres undefined)
inactive: dose: 75.0 mg/kg/injection, schedule: Q01DX001 (ip), vehicle: saline 102 % of control | dose: 150.0 mg/kg/injection, schedule: Q01DX001 (ip), vehicle: saline 102 % of control

NNC(=S)NC1CCCCC1
inactive: dose: 25.0 mg/kg/injection, schedule: Q04DX003 (ip), vehicle: Klucel (hydroxypropylcellulose) (HPC) 100 % of control | dose: 50.0 mg/kg/injection, schedule: Q04DX003 (ip), vehicle: Klucel (hydroxypropylcellulose) (HPC) 95 % of control | [6] 95 % of control and 90 % of control | dose: 100.0 mg/kg/injection, schedule: Q04DX003 (ip), vehicle: saline with Tween-80 96 % of control | dose: 200.0 mg/kg/injection, schedule: Q04DX003 (ip), vehicle: saline with Tween-80 96 % of control | dose: 400.0 mg/kg/injection, schedule: Q04DX003 (ip), vehicle: saline with Tween-80 96 % of control

CC(=O)Oc1cc(OC(C)=O)c2c(OC(C)=O)c3c(OC(C)=O)cc(C)cc3cc2c1
inactive: dose: 5.0 mg/kg/injection, schedule: Q01DX001 (ip), vehicle: saline 112 % of control | dose: 10.0 mg/kg/injection, schedule: Q01DX001 (ip), vehicle: saline 113 % of control

Nc1nc(CCl)nc(Nc2ccccc2)n1
inactive: [5] 105 % of control | [6] 104 % of control | [7] 86 % of control | [8] 98 % of control

O=CCSC(=S)NNc1ccccc1
inactive: [5] 106 % of control | [6] 88 % of control | [7] 95 % of control | [8] 91 % of control | [10] 96 % of control
